For data set [1], the system named is Plasmodium falciparum (Dd2 and Nf54). The data set can be described thus: P. falciparum growth assay / dose-response in human erythrocyte culture (parasitemia after 72 h, acridine orange, FACS). Type of data set: cell-based. Conditions: for parasite growth (endpoint parasitemia, percentage of control): 72-hour treatment, equal concentrations in the media; for IC50: P. falciparum in human erythrocytes, about 72 hours post compound addition. From the text:
FIG. 4A-FIG. 4D. […] DHHC8 transcript codes for five consecutive lie-residues. Levels of each transcript are normalized to total ribosome levels and represented as a ratio of transcript levels under Ile starvation (−Ile) over the control conditions (+Ile). […] Western blot analysis of Ile starved (−Ile), and control (+Ile) sample are normalized to PfHAD1 (PF3D7_1033400) levels. HA-tagged P. falciparum Pelo protein was CRISPR/Cas9 engineered and detected using mouse HA-antibody. The molecular weight of each protein is indicated. […] (D) P. falciparum growth assay in the presence of different compounds and amino acid polymers. Data represent endpoint parasitemia after 72-hour treatment with the indicated compound. Results are normalized to non-treated cultures (control) and presented as a percentage of control samples. Average value from three biological replicates is reported with standard deviation.
The lack of P. falciparum taxis during invasion of host cells, alterations in cytoadhesive properties of infected erythrocytes and previously shown invasion-blocking effects of heparin prompted testing whether poly-lysine repeats in P. falciparum membrane proteins contribute to the overall efficiency of parasite invasion of host erythrocytes.
For FIG. 21-FIG. 25, the general procedure for the drug assays included a total sample volume of 200 μl, every concentration was performed in triplicate, hematocrit was 2%, and starting parasitemia was 1%. The starting concentration of drug was 100 μg/ml and the serial dilution was made from the starting concentration. The end concentration was 0.39 μg/ml). The control represents growth of the parasite culture without added drug. All samples were subjected to Acridine orange staining and the FACS analysis was done on 96 well plates. FlowJo was used to calculate parasitemia.
Dose-response experiments were performed in triplicate with mixed culture of P. falciparum (1.0%-1.2% starting parasitemia). Parasitemias (percentage of total erythrocytes infected with parasites) were measured approximately 72 hours post compound addition by nucleic acid staining of infected red blood cells with 0.8 mg/ml acridine orange in PBS. Inhibition data were fit to a sigmoidal dose-response curve was done using Graphpad Prism 5.0.

Data set [2] deals with uninfected human cells. The data set can be described thus: Binding to uninfected human cells (fluorescence microscopy). The class given is cell-based. Here is the method:
Here, the same procedure as for above (FIG. 19) was performed for the cell culture, except for the incubation volume was 1 ml in PBS and the images were taken on a lab microscope.

Data set [3] concerns human erythrocytes. The data set can be described thus: Hemolysis in erythrocyte culture. Conditions: at IC50. Type of data set: cell-based.
Data set [4] relates to mCherry labelled P. berghei. The data set can be described thus: Treatment of mice infected with mCherry labelled P. berghei. Type of data set: in vivo. As to conditions: 4 doses, over 7 days of infection. From the text: Intraperitoneal treatment of mice results in the reduction of parasitemia over 2 days (see e.g., FIG. 25).
The nature of data set [5]: Structure preservation of crystalline PLL. The class given is physicochemical. Conditions: 37° C.

Like-named read-outs stand apart in the source and are kept apart here.

In the case of “10-L-lysines (SEQ ID NO: 4): Poly (L) lysine of 10 residues in length, from Alamanda polymers (KKKKKKKKKK; Synthetic polybasic peptide)”, the “activity against Plasmodium / malaria” value in data set [1] is given as “no activity”.
For heparin, in data set [1], the “parasite growth (endpoint parasitemia, percentage of control)” value is “inhibiting parasite growth” and the IC50 (in general, the point on the concentration scale where inhibition reaches its midpoint) was found to be 12 mg/L.
For poly-L-lysine, the “binding to other human cells (uninfected human cells)” value in data set [2] was “do not detectably bind”. In addition, the hemolysis entry in data set [3] is recorded as “without hemolysis”. In data set [1], the “parasite growth (endpoint parasitemia, percentage of control)” value is given as “efficient reduction of parasite growth” and the 50% inhibitory concentration (IC50) was determined as 9 mg/L. Moreover, the parasitemia result in data set [4] is “reduces parasitemia”. Also, the structure preservation result in data set [5] was “preserves structure”.
On to poly-L-ornithine, for which the “binding to other human cells (uninfected human cells)” value in data set [2] was “do not detectably bind”. In addition, in data set [1], the “parasite growth (endpoint parasitemia, percentage of control)” value is recorded as “efficient reduction of parasite growth”.
As for poly-glutamate, the “parasite growth (endpoint parasitemia, percentage of control)” value in data set [1] was “did not affect the growth of parasites”.
For the substance poly-ε-L-lysine, the entries for the “activity against Plasmodium / malaria” value in data set [1] and in data set [1] (listed as Epsilon poly-lysine) were “not shown to be effective” and “did not appear to have activity”, respectively.

(Values after patent US12274731B1, “Polybasic antimalarial agents and methods of use thereof” (priority 2018, dated 2025).)
